From PubChem BioAssay (NCI)
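At the GI50, growth is halved. TGI denotes the concentration required for complete inhibition of growth.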

Columns and labels:
Assay in all cases: growth of human tumour cells (NCI), 384-well format
786-0 renal = system: 786-0 renal
A498 renal = system: A498 renal
A549 NSCLC = system: A549 NSCLC
ACHN renal = system: ACHN renal
BT-549 breast = system: BT-549 breast
CAKI-1 renal = system: CAKI-1 renal
CCRF-CEM leukemia = system: CCRF-CEM leukemia
COLO 205 colon = system: COLO 205 colon
DU-145 prostate = system: DU-145 prostate
EKVX NSCLC = system: EKVX NSCLC
HCC-2998 colon = system: HCC-2998 colon
HCT-116 colon = system: HCT-116 colon
HCT-15 colon = system: HCT-15 colon
HL-60(TB) leukemia = system: HL-60(TB) leukemia
HOP-62 NSCLC = system: HOP-62 NSCLC
HOP-92 NSCLC = system: HOP-92 NSCLC
HS 578T breast = system: HS 578T breast
HT29 colon = system: HT29 colon
IGROV1 ovarian = system: IGROV1 ovarian
K-562 leukemia = system: K-562 leukemia
KM12 colon = system: KM12 colon
LOX IMVI melanoma = system: LOX IMVI melanoma
M14 melanoma = system: M14 melanoma
MALME-3M melanoma = system: MALME-3M melanoma
MCF7 breast = system: MCF7 breast
MDA-MB-231 breast = system: MDA-MB-231 breast
MDA-MB-435 melanoma = system: MDA-MB-435 melanoma
MDA-MB-468 breast = system: MDA-MB-468 breast
MOLT-4 leukemia = system: MOLT-4 leukemia
NCI-H226 lung = system: NCI-H226 lung
NCI-H23 lung = system: NCI-H23 lung
NCI-H322M lung = system: NCI-H322M lung
NCI-H460 NSCLC = system: NCI-H460 NSCLC
NCI-H522 lung = system: NCI-H522 lung
NCI/ADR-RES ovarian = system: NCI/ADR-RES ovarian
OVCAR-3 ovarian = system: OVCAR-3 ovarian
OVCAR-4 ovarian = system: OVCAR-4 ovarian
OVCAR-8 ovarian = system: OVCAR-8 ovarian
PC-3 prostate = system: PC-3 prostate
RPMI-8226 leukemia = system: RPMI-8226 leukemia
RXF 393 renal = system: RXF 393 renal
SF-268 CNS = system: SF-268 CNS
SF-295 CNS = system: SF-295 CNS
SF-539 CNS = system: SF-539 CNS
SK-MEL-28 melanoma = system: SK-MEL-28 melanoma
SK-MEL-5 melanoma = system: SK-MEL-5 melanoma
SK-OV-3 ovarian = system: SK-OV-3 ovarian
SN12C renal = system: SN12C renal
SNB-19 CNS = system: SNB-19 CNS
SNB-75 CNS = system: SNB-75 CNS
SR leukemia = system: SR leukemia
SW-620 colon = system: SW-620 colon
T-47D breast = system: T-47D breast
TK-10 renal = system: TK-10 renal
U251 glioblastoma = system: U251 glioblastoma
UACC-257 melanoma = system: UACC-257 melanoma
UACC-62 melanoma = system: UACC-62 melanoma
UO-31 renal = system: UO-31 renal

Molecule COCC(=O)NC/C=C/c1ccc2ncnc(Nc3ccc(Oc4ccc(C)nc4)c(C)c3)c2c1 has a GI50 ([…]-0 renal) of 16 µM, a TGI (786-0 renal) of 29.6 µM and a GI50 (A498 renal) of 14.3 µM. For the same molecule, the TGI (A498 renal) was 27.6 µM, the GI50 (A549 NSCLC) was 11.5 µM and the TGI (A549 NSCLC) was 23.9 µM. For the same molecule, the GI50 (ACHN renal) was 12.1 µM, the TGI (ACHN renal) was 29.1 µM and the GI50 (BT-549 breast) was 13.7 µM. The TGI (BT-549 breast) was 26.8 µM, the GI50 (CAKI-1 renal) was 10.9 µM and the TGI (CAKI-1 renal) was 23.6 µM. For the same molecule, the GI50 (CCRF-CEM leukemia) was 2.86 µM, the TGI (CCRF-CEM leukemia) was 7.8 µM and the GI50 (COLO 205 colon) was 12.3 µM. The TGI (COLO 205 colon) was 24.8 µM, the GI50 (DU-145 prostate) was 12.9 µM and the TGI (DU-145 prostate) was 29.3 µM. The GI50 (EKVX NSCLC) was 9.72 µM, the TGI (EKVX NSCLC) was 22.6 µM and the GI50 (HCC-2998 colon) was 17.5 µM. The TGI (HCC-2998 colon) was 31.4 µM, the GI50 (HCT-116 colon) was 14.2 µM and the TGI (HCT-116 colon) was 27.5 µM. The GI50 (HCT-15 colon) was 13 µM, the TGI (HCT-15 colon) was 26.4 µM and the GI50 (HL-60(TB) leukemia) was 3.53 µM. The TGI (HL-60(TB) leukemia) was 10.3 µM, the GI50 (HOP-62 NSCLC) was 15.4 µM and the TGI (HOP-62 NSCLC) was 29.6 µM. The GI50 (HOP-92 NSCLC) was 13.4 µM, the TGI (HOP-92 NSCLC) was 26.4 µM and the GI50 (HS 578T breast) was 11.9 µM. The TGI (HS 578T breast) was 24.2 µM, the GI50 (HT29 colon) was 15.1 µM and the TGI (HT29 colon) was 28.5 µM. The GI50 (IGROV1 ovarian) was 11.7 µM, the TGI (IGROV1 ovarian) was 24.5 µM and the GI50 (K-562 leukemia) was 5.45 µM. It also gave a TGI (K-562 leukemia) of 18.2 µM, a GI50 (KM12 colon) of 15.8 µM and a TGI (KM12 colon) of 29.8 µM. It also gave a GI50 (LOX IMVI melanoma) of 12 µM, a TGI (LOX IMVI melanoma) of 24.6 µM and a GI50 (M14 melanoma) of 17.1 µM. For the same molecule, the TGI (M14 melanoma) was 30.9 µM, the GI50 (MALME-3M melanoma) was 14.3 µM and the TGI (MALME-3M melanoma) was 27.4 µM. It also gave a GI50 (MCF7 breast) of 4.11 µM, a TGI (MCF7 breast) of 14.7 µM and a GI50 (MDA-MB-231 breast) of 10.7 µM. It also gave a TGI (MDA-MB-231 breast) of 23.3 µM, a GI50 (MDA-MB-435 melanoma) of 15.6 µM and a TGI (MDA-MB-435 melanoma) of 29.1 µM. It also gave a GI50 (MDA-MB-468 breast) of 2.19 µM, a TGI (MDA-MB-468 breast) of 6.66 µM and a GI50 (MOLT-4 leukemia) of 6.77 µM. For the same molecule, the TGI (MOLT-4 leukemia) was 18.8 µM, the GI50 (NCI-H226 lung) was 16.4 µM and the TGI (NCI-H226 lung) was 31.9 µM. For the same molecule, the GI50 (NCI-H23 lung) was 15.1 µM, the TGI (NCI-H23 lung) was 28.8 µM and the GI50 (NCI-H322M lung) was 10.7 µM. For the same molecule, the TGI (NCI-H322M lung) was 25.8 µM, the GI50 (NCI-H460 NSCLC) was 4.25 µM and the TGI (NCI-H460 NSCLC) was 13.2 µM. It also gave a GI50 (NCI-H522 lung) of 1.29 µM, a TGI (NCI-H522 lung) of 17.3 µM and a GI50 (NCI/ADR-RES ovarian) of 15 µM. For the same molecule, the TGI (NCI/ADR-RES ovarian) was 29.6 µM, the GI50 (OVCAR-3 ovarian) was 14.3 µM and the TGI (OVCAR-3 ovarian) was 27.8 µM. For the same molecule, the GI50 (OVCAR-4 ovarian) was 13.3 µM, the TGI (OVCAR-4 ovarian) was 26.3 µM and the GI50 (OVCAR-8 ovarian) was 3.59 µM. The TGI (OVCAR-8 ovarian) was 13.1 µM, the GI50 (PC-3 prostate) was 13.9 µM and the TGI (PC-3 prostate) was 28.3 µM. For the same molecule, the GI50 (RPMI-8226 leukemia) was 4.48 µM, the TGI (RPMI-8226 leukemia) was 15.3 µM and the GI50 (RXF 393 renal) was 10.7 µM. It also gave a TGI (RXF 393 renal) of 22.7 µM, a GI50 (SF-268 CNS) of 16.7 µM and a TGI (SF-268 CNS) of 31 µM. For the same molecule, the GI50 (SF-295 CNS) was 14 µM, the TGI (SF-295 CNS) was 27.3 µM and the GI50 (SF-539 CNS) was 2.66 µM. It also gave a TGI (SF-539 CNS) of 6.57 µM, a GI50 (SK-MEL-28 melanoma) of 17.1 µM and a TGI (SK-MEL-28 melanoma) of 31.1 µM. For the same molecule, the GI50 (SK-MEL-5 melanoma) was 3.38 µM, the TGI (SK-MEL-5 melanoma) was 13.6 µM and the GI50 (SK-OV-3 ovarian) was 11.3 µM. For the same molecule, the TGI (SK-OV-3 ovarian) was 23.5 µM, the GI50 (SN12C renal) was 11.6 µM and the TGI (SN12C renal) was 26.5 µM. It also gave a GI50 (SNB-19 CNS) of 15.2 µM, a TGI (SNB-19 CNS) of 28.9 µM and a GI50 (SNB-75 CNS) of 15.9 µM. The TGI (SNB-75 CNS) was 29.6 µM, the GI50 (SR leukemia) was 4.1 µM and the TGI (SR leukemia) was 8.2 µM. It also gave a GI50 (SW-620 colon) of 11.1 µM, a TGI (SW-620 colon) of 23.2 µM and a GI50 (T-47D breast) of 4.62 µM. For the same molecule, the TGI (T-47D breast) was 17.6 µM, the GI50 (TK-10 renal) was 12 µM and the TGI (TK-10 renal) was 24.7 µM. It also gave a GI50 (U251 glioblastoma) of 15 µM, a TGI (U251 glioblastoma) of 28.4 µM and a GI50 (UACC-257 melanoma) of 14.9 µM. The TGI (UACC-257 melanoma) was 28.3 µM, the GI50 (UACC-62 melanoma) was 14.9 µM and the TGI (UACC-62 melanoma) was 28.2 µM. The GI50 (UO-31 renal) was 12.6 µM and the TGI (UO-31 renal) was 25.6 µM.
